Results published in ChEMBL document CHEMBL3885881, “DrugMatrix”.

Species on record: Rattus norvegicus
Assay: DrugMatrix - Regimen: Daily Repeat
Type: toxicity, organism-based, Sprague-Dawley
Design: regimen Daily Repeat, gender Male, age 6-8 weeks
Details: in vivo, po, route oral GAVAGE, vehicle .5 % CMC; for BASOPHIL / EOSINOPHIL / ERYTHROCYTE COUNT / HEMATOCRIT / HEMOGLOBIN / LEUKOCYTE COUNT / LYMPHOCYTE / MEAN CORPUSCULAR HEMOGLOBIN / MEAN CORPUSCULAR HEMOGLOBIN CONCENTRATION / MEAN CORPUSCULAR VOLUME / MONOCYTE / NEUTROPHIL / PLATELET COUNT: tissue Blood; for ALANINE AMINOTRANSFERASE / ALBUMIN / ALKALINE PHOSPHATASE / ASPARTATE AMINOTRANSFERASE / BLOOD UREA NITROGEN / CHLORIDE / CHOLESTEROL / CREATINE PHOSPHOKINASE / CREATININE / GLUCOSE / PHOSPHORUS / POTASSIUM / SODIUM / TOTAL BILIRUBIN / TOTAL PROTEIN: tissue Plasma
[1] = 0 mg/kg, 72 h, dose level Control, time 3 day
[2] = 0 mg/kg, 120 h, dose level Control, time 5 day
[3] = 59 mg/kg, 72 h, dose level Low, time 3 day
[4] = 59 mg/kg, 120 h, dose level Low, time 5 day

CC[C@@H](CO)NCCN[C@@H](CC)CO [ETHAMBUTOL]
BASOPHIL [1]: 0%
EOSINOPHIL [1]: 0.33%
ERYTHROCYTE COUNT [1]: 6.2 x10E6/uL
HEMATOCRIT [1]: 38.08%
HEMOGLOBIN [1]: 14.92 G/DL
LEUKOCYTE COUNT [1]: 11.13 x10E3/uL
LYMPHOCYTE [1]: 76%
MEAN CORPUSCULAR HEMOGLOBIN [1]: 24.1 pg
MEAN CORPUSCULAR HEMOGLOBIN CONCENTRATION [1]: 39.17 G/DL
MEAN CORPUSCULAR VOLUME [1]: 61.48 fL
MONOCYTE [1]: 3.83%
NEUTROPHIL [1]: 19.83%
PLATELET COUNT [1]: 1327.5 x10E3/uL
ALANINE AMINOTRANSFERASE [1]: 40.17 u/L
ALBUMIN [1]: 4.07 G/DL
ALKALINE PHOSPHATASE [1]: 372 u/L
ASPARTATE AMINOTRANSFERASE [1]: 67.17 u/L
BLOOD UREA NITROGEN [1]: 18.83 mg/dL
CHLORIDE [1]: 105.17 MEQ/L
CHOLESTEROL [1]: 78.17 mg/dL
CREATINE PHOSPHOKINASE [1]: 149.17 u/L
CREATININE [1]: 0.57 mg/dL
GLUCOSE [1]: 185.17 mg/dL
PHOSPHORUS [1]: 11.43 mg/dL
POTASSIUM [1]: 6.78 MEQ/L
SODIUM [1]: 152.83 MEQ/L
TOTAL BILIRUBIN [1]: 0.4 mg/dL
TOTAL PROTEIN [1]: 6.87 G/DL
BASOPHIL [2]: 0%
EOSINOPHIL [2]: 0%
ERYTHROCYTE COUNT [2]: 6.05 x10E6/uL
HEMATOCRIT [2]: 36.55%
HEMOGLOBIN [2]: 14.7 G/DL
LEUKOCYTE COUNT [2]: 11.8 x10E3/uL
LYMPHOCYTE [2]: 86.83%
MEAN CORPUSCULAR HEMOGLOBIN [2]: 24.37 pg
MEAN CORPUSCULAR HEMOGLOBIN CONCENTRATION [2]: 40.32 G/DL
MEAN CORPUSCULAR VOLUME [2]: 60.47 fL
MONOCYTE [2]: 0.83%
NEUTROPHIL [2]: 12.33%
PLATELET COUNT [2]: 1177 x10E3/uL
ALANINE AMINOTRANSFERASE [2]: 41.83 u/L
ALBUMIN [2]: 3.75 G/DL
ALKALINE PHOSPHATASE [2]: 377.5 u/L
ASPARTATE AMINOTRANSFERASE [2]: 60.83 u/L
BLOOD UREA NITROGEN [2]: 16 mg/dL
CHLORIDE [2]: 105.67 MEQ/L
CHOLESTEROL [2]: 67.83 mg/dL
CREATINE PHOSPHOKINASE [2]: 120.33 u/L
CREATININE [2]: 0.6 mg/dL
GLUCOSE [2]: 167.67 mg/dL
PHOSPHORUS [2]: 10.03 mg/dL
POTASSIUM [2]: 6.68 MEQ/L
SODIUM [2]: 150.5 MEQ/L
TOTAL BILIRUBIN [2]: 0.57 mg/dL
TOTAL PROTEIN [2]: 6.25 G/DL
BASOPHIL [3]: 0%
EOSINOPHIL [3]: 0.67%
ERYTHROCYTE COUNT [3]: 6.09 x10E6/uL
HEMATOCRIT [3]: 36.33%
HEMOGLOBIN [3]: 14.2 G/DL
LEUKOCYTE COUNT [3]: 11.65 x10E3/uL
LYMPHOCYTE [3]: 88%
MEAN CORPUSCULAR HEMOGLOBIN [3]: 23.7 pg
MEAN CORPUSCULAR HEMOGLOBIN CONCENTRATION [3]: 39.55 G/DL
MEAN CORPUSCULAR VOLUME [3]: 59.63 fL
MONOCYTE [3]: 0.33%
NEUTROPHIL [3]: 11%
PLATELET COUNT [3]: 1231 x10E3/uL
ALANINE AMINOTRANSFERASE [3]: 35.33 u/L
ALBUMIN [3]: 3.63 G/DL
ALKALINE PHOSPHATASE [3]: 327.67 u/L
ASPARTATE AMINOTRANSFERASE [3]: 58.33 u/L
BLOOD UREA NITROGEN [3]: 11.67 mg/dL
CHLORIDE [3]: 104.33 MEQ/L
CHOLESTEROL [3]: 68 mg/dL
CREATINE PHOSPHOKINASE [3]: 185 u/L
CREATININE [3]: 0.57 mg/dL
GLUCOSE [3]: 165.33 mg/dL
PHOSPHORUS [3]: 12.53 mg/dL
POTASSIUM [3]: 6.5 MEQ/L
SODIUM [3]: 149.67 MEQ/L
TOTAL BILIRUBIN [3]: 0.27 mg/dL
TOTAL PROTEIN [3]: 5.9 G/DL
BASOPHIL [4]: 0%
EOSINOPHIL [4]: 0%
ERYTHROCYTE COUNT [4]: 6.14 x10E6/uL
HEMATOCRIT [4]: 38.6%
HEMOGLOBIN [4]: 15.1 G/DL
LEUKOCYTE COUNT [4]: 11.85 x10E3/uL
LYMPHOCYTE [4]: 89.33%
MEAN CORPUSCULAR HEMOGLOBIN [4]: 24.7 pg
MEAN CORPUSCULAR HEMOGLOBIN CONCENTRATION [4]: 39.2 G/DL
MEAN CORPUSCULAR VOLUME [4]: 63.03 fL
MONOCYTE [4]: 0.67%
NEUTROPHIL [4]: 10%
PLATELET COUNT [4]: 1247.67 x10E3/uL
ALANINE AMINOTRANSFERASE [4]: 27.67 u/L
ALBUMIN [4]: 3.57 G/DL
ALKALINE PHOSPHATASE [4]: 273.67 u/L
ASPARTATE AMINOTRANSFERASE [4]: 55 u/L
BLOOD UREA NITROGEN [4]: 11.33 mg/dL
CHLORIDE [4]: 105.67 MEQ/L
CHOLESTEROL [4]: 89 mg/dL
CREATINE PHOSPHOKINASE [4]: 135.33 u/L
CREATININE [4]: 0.5 mg/dL
GLUCOSE [4]: 157.67 mg/dL
PHOSPHORUS [4]: 11.8 mg/dL
POTASSIUM [4]: 6.47 MEQ/L
SODIUM [4]: 151.33 MEQ/L
TOTAL BILIRUBIN [4]: 0.2 mg/dL
TOTAL PROTEIN [4]: 6 G/DL
